Test results reported in US11242321B2, “Salt forms of organic compound” (KAINOS MEDICINE INC., priority 2018, dated 2022).

Legend:
[1] = Solubility screen of the free acid in various solvents (incremental solvent addition, visual); assay type: physicochemical; conditions: Ca. 10 mg free acid
Description: The free base (or zwitterionic) Compound 1 can be dissolved in unbuffered water, a range of organic solvents, mixtures of organic solvents and mixtures of solvents with unbuffered water. The solvents assessed were 1,1-dimethoxyethane, acetonitrile, ethanol, 1,2-dichloroethane, benzonitrile, ethyl acetate, 1,4-dioxane, anisole, heptane, 2-butanol, cumene, hexane, 2-propanol, cyclohexane, isopropyl acetate, 4-methyl-pentan-2-one, dichloromethane, methanol, acetone, diisopropyl ether (DIPE), isobutyl acetate, tetralin, toluene, methylethyl ketone, N-methylpyrrolidone, tert-butylmethyl ether, nitromethane, pyridine, tetrahydrofuran.
Ca. 10 mg of the free acid of Compound 1 was weighed into 2 mL HPLC vials prior to the addition of solvent in 100-250 μL increments up to a maximum of 1750 μL. After each addition of solvent the samples were briefly shaken to encourage dissolution and visually inspected for signs of any remaining solid. Once the maximum volume of solvent had been added, 1.1 eq of 1M NaOH(aq) solution was also added, to give an indication as to which of the solvents would yield a suitable salt form. The samples were visually inspected prior to maturation for 2 days, after which all were inspected again. All the samples were then left to evaporate at RT to generate solid material.

[2] = Aqueous solubility assessment of salt screen solids (visual); conditions: Ca. 5 mg in up to 4000 μL water (1.25 mg/ml), shaken overnight at 50° C.; for Solubility assessment (dissolution in deionized water), salt from MIBK: salt prepared from MIBK; for Solubility assessment (dissolution in deionized water), salt from DIPE: salt prepared from DIPE; for Solubility assessment (dissolution in deionized water), salt From Ethanol: salt prepared from ethanol
Procedure: Aqueous solubility assessment was performed using Ca. […] These samples were added to aliquots of deionized water up to a maximum of 4000 μL with the samples being shaken between additions to encourage dissolution prior to a visual inspection.

FaSSIF/FeSSIF solubility = assay type: physicochemical; conditions: thermodynamic from solid, shaken 24 h at 37° C.
Procedure: Ca. 25 mg of each of the salts were weighed into a 2 mL HPLC vial prior to the addition of 1 mL of Fasting State Simulated Intenstinal Fluid (FaSSIS) solution. […] The experiment was also repeated using Fed State Simulated Intestinal Fluid (FeSSIF) solution.

pH of saturated solution = assay type: physicochemical; conditions: saturated solution in deionized water, room temperature
Procedure: A saturated solution of each of the salts was prepared in 5 mL of deionized water at room temperature prior to analysis.

pH1 stability = assay type: physicochemical; conditions: pH 1 buffer, 4 h at 37° C.; for Chemical purity post stability (pH 1 for 4 h): HPLC; for 1H NMR post stability (pH 1 for 4 h): cell continues: salt form is no longer present
Procedure: Ca. 25 mg of each of the salts were weighed into a 2 mL HPLC vial prior to the addition of 1 mL of pH 1 buffer. The samples were then shaken for 4 h at 37° C. before being filtered into SPE cartridges and dried overnight.

[3] = Aqueous solubility, 24 h shake, gravimetric; assay type: physicochemical; conditions: thermodynamic from solid, deionized water
Procedure: Ca. 50 mg of each of the salts were weighed into a 2 mL HPLC vial prior to the addition of 1 mL of deionized water. […] The experiment was also repeated at 50° C.

[4] = Dynamic vapor sorption (DVS); assay type: physicochemical; conditions: for XRPD post DVS: after double cycle 0-90% RH
Procedure: SMS DVS Intrinsic dynamic vapour sorption instrument using DVS-Intrinsic control software v1.0.6.0. Analysis of the data was performed using the DVS analysis suite v7.0.13.1 macro program embedded in Microsoft Excel. Analysis was performed as a wt % change from 0-90% RH with isothermal plots also being examined.
Ca. 10-15 mg of sample was weighed into a stainless steel DVS basket before submitting for analysis. The samples were analysed over the range of 0-90% RH with a maximum time of 6 hours per humidity stage. Each sample was exposed to a double cycle. XRPD analysis of all samples was performed post-DVS.

[5] = Stability at 40° C./75% RH; assay type: physicochemical; conditions: for Chemical purity post stability (40° C./75% RH): HPLC

For O=C(CSc1ccc(Br)cc1)Nc1cn(CCc2ccccc2)nc1C(=O)O [Compound 1, 4-(2-((4-bromophenyl)thio)acetamido)-1-phenethyl-1H-pyrazole-3-carboxylic acid], the “Solvent Addition” value ([1]; solvent 1,1-Dimethoxyethane, increments up to maximum 1750 μL) was 1750 µL, the “Solvent Addition” value ([1]; solvent 1,2-Dichloroethane, maximum 1750 μL) was 1750 µL and the “Solvent Addition” value ([1]; solvent 1,4-Dioxane, maximum 1750 μL) was 750 µL. The “Solvent Addition” value ([1]; solvent 2-Butanol, maximum 1750 μL) was 1750 µL, the “Solvent Addition” value ([1]; solvent 2-Propanol, maximum 1750 μL) was 1750 µL and the “Solvent Addition” value ([1]; solvent 4-methyl-pentan-2-one, maximum 1750 μL) was 1750 µL. For the same compound, the “Solvent Addition” value ([1]; solvent Acetone, maximum 1750 μL) was 1750 µL, the “Solvent Addition” value ([1]; solvent Acetonitrile, maximum 1750 μL) was 1750 µL and the “Solvent Addition” value ([1]; solvent Anisole, maximum 1750 μL) was 1750 µL. The “Solvent Addition” value ([1]; solvent Benzonitrile, maximum 1750 μL) was 1750 µL, the “Solvent Addition” value ([1]; solvent Cumene, maximum 1750 μL) was 1750 µL and the “Solvent Addition” value ([1]; solvent Cyclohexane, maximum 1750 μL) was 1750 µL. For the same compound, the “Solvent Addition” value ([1]; solvent Dichloromethane, maximum 1750 μL) was 1750 µL, the “Solvent Addition” value ([1]; solvent Diisopropyl ether, maximum 1750 μL) was 1750 µL and the “Solvent Addition” value ([1]; solvent Ethanol, maximum 1750 μL) was 1750 µL. For the same compound, the “Solvent Addition” value ([1]; solvent Ethyl acetate, maximum 1750 μL) was 1750 µL, the “Solvent Addition” value ([1]; solvent Heptane, maximum 1750 μL) was 1750 µL and the “Solvent Addition” value ([1]; solvent Hexane, maximum 1750 μL) was 1750 µL. For the same compound, the “Solvent Addition” value ([1]; solvent Isobutyl Acetate, maximum 1750 μL) was 1750 µL, the “Solvent Addition” value ([1]; solvent Isopropyl acetate, maximum 1750 μL) was 1750 µL and the “Solvent Addition” value ([1]; solvent Methanol, maximum 1750 μL) was 1750 µL. The “Solvent Addition” value ([1]; solvent Methylethyl ketone, maximum 1750 μL) was 1750 µL, the “Solvent Addition” value ([1]; solvent N-Methylpyrrolidone, maximum 1750 μL) was 250 µL and the “Solvent Addition” value ([1]; solvent Nitromethane, maximum 1750 μL) was 1750 µL. The “Solvent Addition” value ([1]; solvent Pyridine, maximum 1750 μL) was 1750 µL, the “Solvent Addition” value ([1]; solvent Tetrahydrofuran, maximum 1750 μL) was 750 µL and the “Solvent Addition” value ([1]; solvent Tetralin, maximum 1750 μL) was 1750 µL. The “Solvent Addition” value ([1]; solvent Toluene, maximum 1750 μL) was 1750 µL, the “Solvent Addition” value ([1]; solvent Water, maximum 1750 μL) was 1750 µL and the “Solvent Addition” value ([1]; solvent tert-Butylmethyl ether, maximum 1750 μL) was 1750 µL.
In the case of O=C(CSc1ccc(Br)cc1)Nc1cn(CCc2ccccc2)nc1C(=O)O.c1ccc(CNCCNCc2ccccc2)cc1 [N,N′-Dibenzylethylenediamine, salt of 4-(2-((4-bromophenyl)thio)acetamido)-1-phenethyl-1H-pyrazole-3-carboxylic acid and N,N′-dibenzylethylenediamine], the “Solubility assessment (dissolution in deionized water), salt from MIBK” value [2] is reported as “No dissolution”.
For CCNC[C@H](O)[C@@H](O)[C@H](O)[C@H](O)CO.O=C(CSc1ccc(Br)cc1)Nc1cn(CCc2ccccc2)nc1C(=O)O [N-Ethylglucamine, salt of 4-(2-((4-bromophenyl)thio)acetamido)-1-phenethyl-1H-pyrazole-3-carboxylic acid and N-ethylglucamine], the “Solubility assessment (dissolution in deionized water), salt from DIPE” value (shortened to “Solubility assessment … from DIPE”) [2] was “Partial” and the “Solubility assessment (dissolution in deionized water), salt From Ethanol” value (“Solubility assessment … salt From Ethanol” for short) [2] was “Partial”.
For CNC[C@H](O)[C@@H](O)[C@H](O)[C@H](O)CO.O=C(CSc1ccc(Br)cc1)Nc1cn(CCc2ccccc2)nc1C(=O)O [N-Methylglucamine, salt of 4-(2-((4-bromophenyl)thio)acetamido)-1-phenethyl-1H-pyrazole-3-carboxylic acid and N-methylglucamine], the “Solubility assessment … salt From Ethanol” value [2] was “Partial”.
For O=C(CSc1ccc(Br)cc1)Nc1cn(CCc2ccccc2)nc1C(=O)[O-].[K+] [potassium salt, 4-(2-((4-bromophenyl)thio)acetamido)-1-phenethyl-1H-pyrazole-3-carboxylic acid potassium salt], the solubility at 24 h (FaSSIF/FeSSIF solubility; FaSSIF, read-out: FaSSIF solubility @ 37° C.) was 1500 µg/mL, the solubility at 24 h (FaSSIF/FeSSIF solubility; FeSSIF, read-out: FeSSIF solubility @ 37° C.) was 1600 µg/mL and the “pH of rm temp sat'd sol'n” value (pH of saturated solution) was 9.21. The “Solubility assessment … from DIPE” value [2] was “Complete”, the “Solubility assessment (dissolution in deionized water), salt from MIBK” value [2] was “Partial” and the “Solubility assessment … salt From Ethanol” value [2] was “Complete”. For the same compound, the “Observations post stability (pH 1 for 4 h)” value (pH1 stability) was “No visual change”, the “XRPD post stability (pH 1 for 4 h)” value (pH1 stability) was “Partially crystalline: change in crystalline form compared to the” and the “Chemical purity post stability (pH 1 for 4 h)” value (pH1 stability) was >99.9% (by peak area). The “1H NMR post stability (pH 1 for 4 h)” value (pH1 stability) was “Reduction in chemical shifts, indicating that salt form is no”, the solubility at 24 h ([3]; shaken 24 h at 25° C., read-out: Aqueous solubility @ 25° C.) was 6600 µg/mL and the solubility at 24 h ([3]; shaken 24 h at 50° C.) was 16200 µg/mL. For the same compound, the “DVS mass increase between 0-90% RH, first cycle” value ([4]; 0-90% RH) was “Ca. 5.7% mass increase between 0-90% RH on the first cycle”, the “XRPD post DVS” value [4] was “Partially crystalline-pattern is different from free acid indicating” and the “Observation post stability (40° C./75% RH)” value [5] was “No visible change”. The “XRPD post stability (40° C./75% RH)” value [5] was “Partially crystalline-no change in form” and the “Chemical purity post stability (40° C./75% RH)” value [5] was >99.9% (by peak area).
With “salt of 4-(2-((4-bromophenyl)thio)acetamido)-1-phenethyl-1H-pyrazole-3-carboxylic acid and N-(phenylmethyl)benzeneethaneamine [N-(Phenylmethyl) benzeneethaneamine]” the “Solubility assessment … from DIPE” value [2] was “No dissolution” and the “Solubility assessment … salt From Ethanol” value [2] was “No dissolution”.
In the case of “salt of 4-(2-((4-bromophenyl)thio)acetamido)-1-phenethyl-1H-pyrazole-3-carboxylic acid and calcium acetate”, the “Solubility assessment … salt From Ethanol” value [2] is reported as “No dissolution”.
In the case of “salt of 4-(2-((4-bromophenyl)thio)acetamido)-1-phenethyl-1H-pyrazole-3-carboxylic acid and diethylamine [diethylamine salt]”, the “Observations post stability (pH 1 for 4 h)” value (pH1 stability) is reported as “No visual change”, the “Chemical purity post stability (pH 1 for 4 h)” value (pH1 stability) is reported as >99.9% (by peak area) and the “1H NMR post stability (pH 1 for 4 h)” value (pH1 stability) is reported as “Reduction in chemical shifts, indicating that salt form is no”. For the same compound, the “DVS mass increase between 0-90% RH, first cycle” value ([4]; 0-90% RH) was “Ca. 0.1% mass increase between 0-90% RH on the first cycle”, the “DVS mass increase between 0-90% RH, second cycle” value ([4]; 0-90% RH, second cycle) was “Ca. 0.1% mass increase between 0-90% RH on the first cycle” and the “XRPD post DVS” value [4] was “Crystalline-no change in form”. For the same compound, the “Observation post stability (40° C./75% RH)” value [5] was “No visible change”, the “XRPD post stability (40° C./75% RH)” value [5] was “Crystalline-no change in form” and the “Chemical purity post stability (40° C./75% RH)” value [5] was >99.9% (by peak area).
For “salt of 4-(2-((4-bromophenyl)thio)acetamido)-1-phenethyl-1H-pyrazole-3-carboxylic acid and magnesium acetate”, the “Solubility assessment … salt From Ethanol” value [2] was “No dissolution”.
For “salt of 4-(2-((4-bromophenyl)thio)acetamido)-1-phenethyl-1H-pyrazole-3-carboxylic acid and tromethamine”, the “Solubility assessment … salt From Ethanol” value [2] was “No dissolution”.
